Experimental data as given in patent publication US5011839A, “3(2H)pyridazinones for antagonistic agent against srs-a” (Nissan Chemical Industries Ltd., priority 1988, dated 1991).

test system: LTD4 (contractile responses of guinea-pig trachea); test: LTD4 antagonism in guinea-pig trachea (in vitro test, isolated tracheal spiral strip); assay type: cell-based; settings: Cavia porcellus, 0.5 h; test compound concentration 10^6 g/ml [sic], added 30 min prior to LTD4; isolated male guinea-pig trachea; vs paired control
Protocol: LTD4 antagonism in guinea-pig trachea
Antagonism for LTD4 was determined in isolated male guinea-pig (300-400 g) trachea prepared as spiral strip. Tracheal preparations were suspended under 1 g tension in 10 ml organ baths containing 5 μM of indomethacin and they were incubated for 1 hour prior to used. Contractile responses to LTD4 (2×10^8 g/ml) were obtained after the maximal response to histamine (10^4 M). Test compounds dissolved in 100% dimethyl sulfoxide were added to the organ baths (final concentration of 10^6 g/ml) 30 min prior to LTD4 addition, and then contractile responses to LTD4 were compared with those of control which was obtained from a paired trachea in the absence of test compounds. LTD-induced contractions were expressed as a percentage of the maximal response to histamine. The antagonism was determined as follows:
Antagonism (%)=(1.0-% contraction in test/% contraction in […]

Compound | inhibition at 1 µg/mL [%]
CCn1ncc(NCc2cccc3ccccc23)c(Br)c1=O [compound 23] | 57
CCn1ncc(NCc2ccco2)c(Br)c1=O [Compound No. 22, 2Ethyl-4-bromo-5-(2-furanylmethylamino)-3(2H)pyridazinone] | 39
CCOc1n[nH]c(=O)c(Cl)c1NCc1ccc(OC)c2ccccc12 [Compound No. 31] | 95
CCn1ncc(NCc2c(OC)ccc3ccccc23)c(Br)c1=O [compound 25] | 50
COc1ccc(CNc2c(Cl)n[nH]c(=O)c2Cl)c2ccccc12 [Compound No. 34, 4,6-Dichloro-5-(4-methoxy-1-naphthylmethylamino)-3(2H)pyridazinone] | 99
COc1ccc(CNc2c(OC(C)C)n[nH]c(=O)c2Cl)c2ccccc12 [Compound No. 32, 4-Chloro-5-(4-methoxy-1-naphthylmethylamino)-6-i-propoxy-3(2H)pyridazinone] | 50
CCn1ncc(NCc2ccc3ccccc3c2)c(Br)c1=O [compound 24] | 67
COc1ccc(CNc2cn[nH]c(=O)c2Cl)c2ccccc12 [Compound No. 5, 4-Chloro-5-(4-methoxy-1-naphthylmethylamino)-3(2H)pyridazinone] | 79
CCCCCCOc1n[nH]c(=O)c(Cl)c1NCc1cccnc1 [compound 60] | 96
COc1ccc(CNc2c([N+](=O)[O-])n[nH]c(=O)c2Cl)c2ccccc12 [Compound No. 30, 4-Chloro-5-(4-methoxy-1-naphthylmethylamino)-6-nitro-3(2H)pyridazinone] | 50
CCCCOc1n[nH]c(=O)c(Cl)c1NCc1ccc(Cl)nc1 [compound 57] | 69
CCn1nc(OC)c(NCc2ccc(OC)c3ccccc23)c(Cl)c1=O [compound 38] | 43
CCCc1c(OCC(O)COc2ccc3c(=O)cc(C(=O)O)oc3c2CCC)ccc(C(C)=O)c1O (centres unmarked) [FPL-55712, reference compound] | 94
COc1ccc(CNc2cn[nH]c(=O)c2Br)c2ccccc12 [Compound No. 16] | 74
